Key:
Assay in all cases: Kinase profiling in a biochemical assay panel (mobility shift assays and ELISA), %-inhibition at 1 μM; selectivity entropy
[1] = target: panel of more than 300 wild-type and mutant kinases (313 kinase panel) (Homo sapiens, UniProt P48730)
[2] = target: panel of more than 300 wild-type and mutant kinases (313 kinase panel) (Homo sapiens, UniProt Q00535); conditions: kinase CDK5/p25; 1 μM compound
[3] = target: T1, panel of more than 300 wild-type and mutant kinases (313 kinase panel) (Homo sapiens, UniProt Q13043)
T1 sequence (Q13043 1-487): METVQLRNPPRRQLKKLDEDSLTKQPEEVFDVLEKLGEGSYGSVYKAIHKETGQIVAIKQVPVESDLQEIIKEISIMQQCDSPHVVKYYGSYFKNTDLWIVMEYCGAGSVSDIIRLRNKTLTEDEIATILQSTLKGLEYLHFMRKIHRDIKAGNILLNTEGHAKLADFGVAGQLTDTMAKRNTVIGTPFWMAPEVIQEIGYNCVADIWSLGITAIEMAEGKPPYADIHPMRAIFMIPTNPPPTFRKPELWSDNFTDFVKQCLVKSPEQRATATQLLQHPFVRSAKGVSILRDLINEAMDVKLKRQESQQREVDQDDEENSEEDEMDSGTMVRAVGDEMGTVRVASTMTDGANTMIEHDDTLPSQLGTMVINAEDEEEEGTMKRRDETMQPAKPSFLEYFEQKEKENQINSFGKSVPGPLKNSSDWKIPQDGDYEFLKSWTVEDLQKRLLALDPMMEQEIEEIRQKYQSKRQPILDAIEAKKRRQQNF

[4] = target: T2, panel of more than 300 wild-type and mutant kinases (313 kinase panel) (Homo sapiens, UniProt Q13237); conditions: kinase CGK2; 1 μM compound
T2 sequence (Q13237 1-762): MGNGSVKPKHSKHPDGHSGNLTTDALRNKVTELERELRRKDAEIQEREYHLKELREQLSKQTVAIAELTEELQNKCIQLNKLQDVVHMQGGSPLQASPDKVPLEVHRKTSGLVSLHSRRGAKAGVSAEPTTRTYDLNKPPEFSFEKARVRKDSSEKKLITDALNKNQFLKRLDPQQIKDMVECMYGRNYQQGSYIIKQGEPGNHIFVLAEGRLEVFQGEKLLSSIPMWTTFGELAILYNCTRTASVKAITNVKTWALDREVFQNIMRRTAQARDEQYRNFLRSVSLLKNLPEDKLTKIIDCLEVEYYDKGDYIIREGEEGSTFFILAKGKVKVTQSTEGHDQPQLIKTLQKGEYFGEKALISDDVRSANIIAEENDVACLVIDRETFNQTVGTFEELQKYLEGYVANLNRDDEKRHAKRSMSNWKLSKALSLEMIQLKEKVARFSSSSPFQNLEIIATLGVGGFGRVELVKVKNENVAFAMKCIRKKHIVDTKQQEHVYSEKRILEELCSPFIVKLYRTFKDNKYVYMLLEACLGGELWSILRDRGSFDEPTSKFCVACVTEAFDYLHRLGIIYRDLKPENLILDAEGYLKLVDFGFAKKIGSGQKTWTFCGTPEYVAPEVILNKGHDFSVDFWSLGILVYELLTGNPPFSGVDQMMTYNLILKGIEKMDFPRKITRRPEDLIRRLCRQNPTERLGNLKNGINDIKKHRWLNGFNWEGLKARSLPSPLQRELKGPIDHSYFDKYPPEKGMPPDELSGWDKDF

[5] = target: panel of more than 300 wild-type and mutant kinases (313 kinase panel) (Homo sapiens, UniProt Q15208)
Sequence of panel of more than 300 wild-type and mutant kinases (313 kinase panel) (Homo sapiens, UniProt Q15208) (Q15208 whole entry, change not shown): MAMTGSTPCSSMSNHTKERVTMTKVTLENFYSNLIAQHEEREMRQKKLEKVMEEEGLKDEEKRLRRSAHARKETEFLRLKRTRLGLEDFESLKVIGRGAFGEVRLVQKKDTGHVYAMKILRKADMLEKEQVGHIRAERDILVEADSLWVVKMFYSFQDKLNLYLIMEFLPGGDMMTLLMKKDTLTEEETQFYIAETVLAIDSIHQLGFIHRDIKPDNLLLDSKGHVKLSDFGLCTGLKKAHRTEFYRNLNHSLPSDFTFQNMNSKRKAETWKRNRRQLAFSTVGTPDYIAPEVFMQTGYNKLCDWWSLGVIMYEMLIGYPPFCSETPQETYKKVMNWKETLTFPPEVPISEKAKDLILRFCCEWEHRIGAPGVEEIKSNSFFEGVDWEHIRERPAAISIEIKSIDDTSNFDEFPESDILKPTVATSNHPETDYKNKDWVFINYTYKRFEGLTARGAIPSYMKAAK

[6] = target: panel of more than 300 wild-type and mutant kinases (313 kinase panel) (Homo sapiens, UniProt Q86Z02); conditions: kinase HIPK1; compound at 1 μM
[7] = target: panel of more than 300 wild-type and mutant kinases (313 kinase panel) (Homo sapiens, UniProt Q9UBS0); conditions: kinase p70S6Kβ; 1 μM
[8] = target: T3, panel of more than 300 wild-type and mutant kinases (313 kinase panel) (Homo sapiens, UniProt Q9Y2U5)
T3 sequence (Q9Y2U5 1-619): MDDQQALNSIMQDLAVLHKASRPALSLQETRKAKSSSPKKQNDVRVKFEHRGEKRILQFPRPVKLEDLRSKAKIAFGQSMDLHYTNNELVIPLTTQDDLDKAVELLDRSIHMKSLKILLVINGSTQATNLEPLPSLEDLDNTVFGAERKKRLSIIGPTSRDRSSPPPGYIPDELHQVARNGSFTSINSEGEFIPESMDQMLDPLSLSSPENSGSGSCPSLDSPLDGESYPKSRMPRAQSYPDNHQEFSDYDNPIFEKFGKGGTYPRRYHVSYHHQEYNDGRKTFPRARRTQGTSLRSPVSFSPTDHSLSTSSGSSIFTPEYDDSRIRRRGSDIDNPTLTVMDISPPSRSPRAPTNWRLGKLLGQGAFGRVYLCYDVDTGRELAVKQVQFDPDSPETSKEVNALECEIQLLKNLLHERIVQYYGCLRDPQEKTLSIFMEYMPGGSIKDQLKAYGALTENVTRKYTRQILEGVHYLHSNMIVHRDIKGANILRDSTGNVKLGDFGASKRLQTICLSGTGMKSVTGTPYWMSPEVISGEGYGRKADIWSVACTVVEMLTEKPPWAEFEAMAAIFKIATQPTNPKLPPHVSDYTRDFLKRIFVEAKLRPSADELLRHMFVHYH

[9] = kinase MAP3K2, compound at 1 μM

Sequence of panel of more than 300 wild-type and mutant kinases (313 kinase panel) (Homo sapiens, UniProt Q00535) (Q00535 whole entry, change not shown): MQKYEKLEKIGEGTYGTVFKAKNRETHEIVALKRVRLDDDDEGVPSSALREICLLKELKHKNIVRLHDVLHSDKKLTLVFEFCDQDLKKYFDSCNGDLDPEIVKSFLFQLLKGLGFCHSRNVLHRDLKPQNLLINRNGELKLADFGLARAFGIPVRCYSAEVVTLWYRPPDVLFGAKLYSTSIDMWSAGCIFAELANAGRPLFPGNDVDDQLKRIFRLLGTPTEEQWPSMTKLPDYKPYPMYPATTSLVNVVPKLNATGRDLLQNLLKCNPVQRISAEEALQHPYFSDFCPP

| Structure (SMILES) | %-inhibition, CK1δ ([1]; kinase CK1δ, 1 μM compound) | %-inhibition, CDK5/p25 [2] | %-inhibition of MST1 ([3]; kinase MST1, 1 μM) | %-inhibition, CGK2 [4] | %-inhibition of NDR1 ([5]; kinase NDR1, 1 μM) | %-inhibition of HIPK1 [6] | %-inhibition of p70S6Kβ [7] | %-inhibition of MAP3K2 [8, 9] | %-inhibition of MAP3K2 ([8]; 1 µM) | %-inhibition of NDR1 ([5]; 1 µM) | %-inhibition, CK1δ ([1]; 1 µM) | %-inhibition of MST1 ([3]; 1 µM) |
| --- | --- | --- | --- | --- | --- | --- | --- | --- | --- | --- | --- | --- |
| CO[C@H]1C[C@@H]2CC[C@@H](C)[C@@](O)(O2)C(=O)C(=O)N2CCCC[C@H]2C(=O)O[C@H]([C@H](C)C[C@@H]2CC[C@@H](OCCO)[C@H](OC)C2)CC(=O)[C@H](C)/C=C(\C)[C@@H](O)[C@@H](OC)C(=O)[C@H](C)C[C@H](C)/C=C/C=C/C=C/1C [everolimus] | -4.27% | -26% | -1.86% | -4.58% | -7% | -6% | -11% | 7.56% | – | – | – | – |
| CCN(CC)CCNC(=O)c1c(C)[nH]c(/C=C2\C(=O)Nc3ccc(F)cc32)c1C [sunitinib] | 32% | – | – | – | 9% | 79% | – | – | – | – | – | – |
| CC(=O)Nc1cccc(-n2c(=O)n(C3CC3)c(=O)c3c(Nc4ccc(I)cc4F)n(C)c(=O)c(C)c32)c1 [trametinib] | 0.365% | 19% | -3.74% | -2.61% | -1.68% | -3.71% | -1% | 0.801% | – | – | – | – |
| CN(C)C/C=C/C(=O)Nc1cc2c(Nc3ccc(F)c(Cl)c3)ncnc2cc1O[C@H]1CCOC1 [afatinib] | – | – | – | – | – | – | 3.42% | – | – | – | – | – |
| O=S(=O)(c1cccc2cnccc12)N1CCCNCC1 [fasudil] | -3.4% | – | 10% | 46% | 18% | -3.31% | 37% | -15% | – | – | – | – |
| N#CC[C@H](C1CCCC1)n1cc(-c2ncnc3[nH]ccc23)cn1 [ruxolitinib] | 12% | -16% | 12% | – | 88% | 3% | 11% | – | 75% | – | – | – |
| COc1cc2nccc(Oc3ccc(NC(=O)C4(C(=O)Nc5ccc(F)cc5)CC4)cc3)c2cc1OC [cabozantinib] | 0.0601% | -14% | 6% | -2.55% | -5.4% | 31% | -3.52% | 9% | – | – | – | – |
| CC(C)(C)c1nc(-c2cccc(NS(=O)(=O)c3c(F)cccc3F)c2F)c(-c2ccnc(N)n2)s1 [dabrafenib] | 8.51% | 22% | – | -1.38% | -0.891% | 70% | -0.554% | 71% | – | – | – | – |
| C[C@@H](Oc1cc(-c2cnn(C3CCNCC3)c2)cnc1N)c1c(Cl)ccc(F)c1Cl [crizotinib] | 9% | -8% | 83% | -0.915% | -1.48% | -7% | 6% | – | – | – | – | – |
| CCCS(=O)(=O)Nc1ccc(F)c(C(=O)c2c[nH]c3ncc(-c4ccc(Cl)cc4)cc23)c1F [vemurafenib] | -3% | 5% | 51% | -2.26% | -3.81% | -4.72% | 0.235% | 21% | – | – | – | – |
| Cc1ccc(C(=O)Nc2ccc(CN3CCN(C)CC3)c(C(F)(F)F)c2)cc1C#Cc1cnc2cccnn12 [ponatinib] | – | -20% | – | 12% | – | 22% | 78% | 79% | – | – | – | – |
| Cc1nc(Nc2ncc(C(=O)Nc3c(C)cccc3Cl)s2)cc(N2CCN(CCO)CC2)n1 [dasatinib] | – | 4.63% | – | -6% | -1.85% | 2.64% | – | – | – | – | – | – |
| COc1cc(Nc2c(C#N)cnc3cc(OCCCN4CCN(C)CC4)c(OC)cc23)c(Cl)cc1Cl [bosutinib] | – | -25% | – | -0.53% | – | 3.32% | – | – | 93% | -3.49% | – | – |
| CS(=O)(=O)CCNCc1ccc(-c2ccc3ncnc(Nc4ccc(OCc5cccc(F)c5)c(Cl)c4)c3c2)o1 [lapatinib] | – | 0.201% | – | -9% | -0.543% | – | 8% | 5.6% | – | – | -3.34% | -5.59% |
